Data: patent US5550143A, “Heterocyclic compounds” (Adir et Compagnie, priority 1992, dated 1996)
Like-named read-outs stand apart in the source and are kept apart here.

Columns and labels:
LPS shock = test: Protective effect in respect of LPS shock (% survival of mice after administration of LPS); assay type: in vivo; settings: 30 min before LPS 1 μg
Procedure: The test is carried out on mice. The compound to be tested is administered intraperitoneally or orally. In the first protocol (i.p.), the compound is administered 30 minutes before the injection of 1 μg of LPS into mice. The mortality is determined 72 hours later.

TNF [1] = test: Inhibition of the production of TNF in mice treated with LPS (amount of TNF in the serum); assay type: in vivo; settings: Mus musculus, 1 h; for inhibition in vivo at 50 mg/kg: oral, 30 min before LPS 2.5 μg i.p., compared with control group which received only LPS, read-out: % inhibition of the production of TNF after oral admin.
Procedure: The test is carried out on mice. Thirty minutes after the intraperitoneal or oral administration of the molecule to be tested, the mice are treated intraperitoneally with 2.5 μg of LPS from Escherichia coli. The amount of TNF in the serum is measured after 1 hour by a biological method.

TNF [2] = test: Peripheral effect: amount of TNF in serum and brain of rats after intracerebroventricular LPS; assay type: in vivo; settings: Example 1 i.p. 8 mg/kg, FIG. 1
Text: In comparison with chlorpromazine, the compounds of the invention have only a peripheral effect.

[3] = system: spontaneous motor activity; test: Locomotive activity in mice (spontaneous motor activity); assay type: in vivo; settings: for Number of movements (as a % compared with a control group): 30 min before test, 15 min, ns p > 0.05, ** p < 0.01
Procedure: This test consists in determining the spontaneous motor activity of mice placed in an enclosure that constitutes a new environment and is equipped with a system of infra-red rays, the interruption of which when the animal passes through serves as a measurement criterion ("Activity monitor" Digiscan-Omnitech Electronics, Sufraco France).
The molecules are administered intraperitoneally 30 minutes before the test at doses of 1, 2, 2.5, 4, 5 and 10 mg/kg. The locomotive activity (number of movements) is measured for 15 minutes.

corticosteronemia = test: Measurement of corticosteronemia after administration of IL-1; assay type: in vivo, mice; settings: for Reduction in hypercorticosteronemia compared with control / Hypercorticosteronemia after admin. IL-1: 30 min before 1 μg IL-1 i.p.; for Hypercorticosteronemia after admin. IL-1: measured 2 hours later
Procedure: Thirty minutes after the intraperitoneal administration of the molecule to be tested, the mice are treated with 1 μg of IL-1 injected intraperitoneally. Corticosteronemia is determined 2 hours later by a suitable technique. Under the same conditions, the compound and then a saline solution are administered intraperitoneally to a control group.

Procine pancreatic PLA2 = biological target: T1, Procine pancreatic PLA2 (Sus scrofa, UniProt P00592); test: Inhibition of phospholipase PLA2 activity (E. coli membranes labelled with tritiated oleic acid); assay type: biochemical, pigs; settings: read-out: % Inhibition at 1 mM
T1 construct: from tissue; host or cells: porcine pancreas
T1 sequence (P00592 23-146): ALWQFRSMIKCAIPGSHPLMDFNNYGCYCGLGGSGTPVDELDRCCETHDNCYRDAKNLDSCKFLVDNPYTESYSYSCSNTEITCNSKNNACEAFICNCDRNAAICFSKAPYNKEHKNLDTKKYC
Procedure: PLA2 hydrolyses cell membrane phospholipids by freeing arachidonic acid (AA). Inhibition of that enzyme brings about a reduction in the amount of non-esterified free AA from which metabolites, such as leucotrienes and pro-inflammatory prostaglandins, are produced. The PLA2 activity is measured by using as substrate E. coli membranes labelled with tritiated oleic acid. Procine pancreatic PLA2 is incubated with the preparation for 30 minutes at 37° C. After centrifugation, the radioactivity of the supernatant is counted. The inhibitory activity of the compound (1 mM) is expressed in relation to the control.

[4] = Hypotensive effect in rats; assay type: in vivo; settings: 20 mg/kg intraperitoneally
[5] = ip, read-out: % inhibition of the production of TNF after i.p. admin.
[6] = 1 mM, 30 minutes at 37° C., relative to control

| Compound | hypotension [4] | inhibition in vivo at 50 mg/kg (TNF [1]) [%] | inhibition in vivo at 5 mg/kg (TNF [1]; [5]) [%] | Reduction in hypercorticosteronemia compared with control (corticosteronemia; 5 mg/kg i.p.) [%] | Hypercorticosteronemia after admin. IL-1 (corticosteronemia; 5 mg/kg i.p.) [ng/ml serum] | other results |
| --- | --- | --- | --- | --- | --- | --- |
| CN(C)CCCN1c2ccccc2Sc2ccc(Cl)cc21 [Chlorpromazine, reference compound] | severe hypotension from the 15th minute onwards | – | – | – | – | % survival 72 h after i.p. administration (LPS shock; 1 mg/kg): 36%; % survival 72 h after i.p. administration (LPS shock; 4 mg/kg): 77%; inhibition in vivo at 4 mg/kg (TNF [1]; [5]): 100%; amount of TNF in the brain (rats, intracerebroventricular LPS) (TNF [2]; brain): the amount in the brain, as is observed in rats treated with chlorpromazine; amount of TNF in the serum (rats, intracerebroventricular LPS) (TNF [2]; 8 mg/kg): reduces the amount of TNF in the serum, as does chlorpromazine; Number of movements (as a % compared with a control group) ([3]; IP 1 mg/kg): -20%; Number of movements (as a % compared with a control group) ([3]; IP 2 mg/kg): -58%; Number of movements (as a % compared with a control group) ([3]; IP 4 mg/kg): -64%; sedative action (in words) ([3]; i.p., chlorpromazine at 2 mg/kg and above): very sedative at 2 mg/kg and above; Reduction in hypercorticosteronemia compared with control (corticosteronemia; 4 mg/kg i.p.): ~86%; Reduction in hypercorticosteronemia compared with control (corticosteronemia; 4 mg/kg i.p., listed as Chloropromazine): 85.7%; Hypercorticosteronemia after admin. IL-1 (corticosteronemia; 4 mg/kg i.p.): 63 ng/ml serum; passage through the blood/brain barrier (corticosteronemia; demonstrated by determination of corticosteronemia after IL-1): crosses the blood/brain barrier; inhibition at 1000 µM (Procine pancreatic PLA2): 76% |
| C[N+](C)(C)CCCN1c2ccccc2Sc2ccc(Cl)cc21.[Br-] [Example 1, N-[3-(2-chlorophenothiazin-10-yl)propyl]trimethylammonium bromide] | No hypotension is observed | 68 | 75 | 11.8 | 389 | % survival 72 h after i.p. administration (LPS shock; 5 mg/kg): 80%; amount of TNF in the serum (rats, intracerebroventricular LPS) (TNF [2]): reduces the amount of TNF in the serum; Number of movements (as a % compared with a control group) ([3]; IP 5 mg/kg): -20%; Number of movements (as a % compared with a control group) ([3]; IP 10 mg/kg): -9%; inhibition at 1000 µM (Procine pancreatic PLA2; [6]): 72% |
| C[N+](C)(C)CCCN1c2ccccc2[S+]([O-])c2ccc(Cl)cc21.[Br-] (stereo not drawn) [Example 2, N-[3-(2-chloro-5-oxo-phenothiazin-10-yl)propyl]trimethylammonium bromide] | No hypotension is observed | 60 | 50 | 5.4 | 417 | – |
| C[N+](C)(C)CCCN1c2ccccc2S(=O)(=O)c2ccc(Cl)cc21 [Example 3, N-[3-(2-chloro-5-dioxo-phenothiazin-10-yl)propyl]trimethylammonium bromide] | – | – | 69 | – | – | – |
| CC(C)[N+](C)(C)CCCN1c2ccccc2Sc2ccc(Cl)cc21 [Example 6, N-[3-(2-chlorophenothiazin-10-yl)propyl] dimethylisopropylammonium bromide] | – | 38 | – | – | – | – |
| CCCC[N+](C)(C)CCCN1c2ccccc2Sc2ccc(Cl)cc21.[Br-] [Example 7, N-[3-(2-chlorophenothiazin-10-yl)propyl] butyldimethylammonium bromide] | No hypotension is observed | 72 | 95 | 11.8 | 389 | % survival 72 h after i.p. administration (LPS shock; 5 mg/kg): 40%; Number of movements (as a % compared with a control group) ([3]; IP 5 mg/kg): -43%; Number of movements (as a % compared with a control group) ([3]; IP 10 mg/kg): -63%; Number of movements (as a % compared with a control group) ([3]; IP 2,5 mg/kg): -27%; inhibition at 1000 µM (Procine pancreatic PLA2; [6]): 97% |
| CCCC[N+](C)(C)CCCN1c2ccccc2[S+]([O-])c2ccc(Cl)cc21.[Br-] (stereo not drawn) [Example 8, N-[3-(2-chloro-5-oxo-phenothiazin-10-yl)propyl] butyldimethylammonium bromide] | No hypotension is observed | 73 | 71 | 19.3 | 356 | – |
| CCCC[N+](C)(C)CCCN1c2ccccc2S(=O)(=O)c2ccc(Cl)cc21 [Example 9, N-[3-(2-chloro-5-dioxo-phenothiazin-10-yl)propyl] butyldimethylammonium bromide] | – | – | 75 | – | – | – |
| C[N+](C)(CCCN1c2ccccc2Sc2ccc(Cl)cc21)Cc1ccccc1.[Br-] [Example 10, N-[3-(2-chlorophenothiazin-10-yl)propyl] benzyldimethylammonium bromide] | – | – | 27 | 0.2 | 440 | % survival 72 h after i.p. administration (LPS shock; 5 mg/kg): 60%; inhibition at 1000 µM (Procine pancreatic PLA2; [6]): 98% |
| O=C(O)CCCN1c2ccccc2Sc2ccc(Cl)cc21 [Example 15, 4-(2-chlorophenothiazin-10-yl)butanoic acid] | – | 55 | – | – | – | – |
| CC(C)=CCC/C(C)=C/CN1c2ccccc2Sc2ccc(Cl)cc21 [Example 26, 2-chloro-10-[(2E)-1-(3,7-dimethylocta-2,6-dienyl)]phenothiazine] | – | 55 | – | – | – | – |
| CC(C)(C)C1CCC2(CC1)CCN(CCCN1c3ccccc3Sc3ccc(Cl)cc31)C2 (stereo not drawn) [Example 27, 2-[3-(2-chlorophenothiazin-10-yl)propyl]-8-tert-butyl-2-azoniaspiro[4.5]decane chloride] | – | 26 | – | – | – | – |
| CCN(CC)CCCC(C)Nc1c2ccc(Cl)cc2nc2ccc(OC)cc12 (stereo not drawn) [Mepacrine, reference compound] | – | – | – | – | – | inhibition at 1000 µM (Procine pancreatic PLA2): 67% |
